Measurements published in patent US10457707B2, “Substituted urea depsipeptide analogs as activators of the CLPP endopeptidase” (priority 2015, dated 2019).
Values after ≈ are worked out from the molar mass of the structure shown. *1 amine or outer side, *2 acyl side, *3 side chain or, on linkers, in order; H or OH if unused. Where a SMILES comes first, the peptide text is derived from it. Bridges are numbered along the chain shown (N, C = ends). [ ]: non-standard residue; d: D form. The star is where a group is joined. Phe(3,5-F2) = N[C@@H](Cc1cc(F)cc(F)c1)C(=O)O; Pro(4S-Me) = C[C@@H]1CN[C@H](C(=O)O)C1; NHPh(4-CF3) = FC(F)(F)c1ccc(N*)cc1; NH(4-Me-phenyl) = Cc1ccc(N*)cc1; aThr = C[C@H](O)[C@H](N)C(=O)O; Pip = O=C(O)[C@@H]1CCCCN1; CO = O=C([*:1])[*:2]

Legend:
Assay type in all cases: cell-based
[1] = tested on: Staphylococcus aureus, USA 300; test: Minimal inhibitory concentration assay; details: USA300, read-out: Minimal Inhibitory Concentrations S. aureus USA 300
Procedure, shortened: (§1)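 Visual read-out; MIC is the lowest drug concentration with no bacterial growth after overnight aerobic incubation at 37 °C. Compound was tested in two-fold dilutions starting at 200 μM final, with an inoculum of approximately 10^5 cfu/mL, following CLSI microdilution guidance.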

[2] = tested on: Staphylococcus aureus, USA 300 wherein ClpP is inactivated; test: Minimal inhibitory concentration assay
Procedure, shortened: as §1

[3] = tested on: Streptococcus pyogenes, ATCC 700294; test: Minimal inhibitory concentration assay (microbroth dilution); details: Streptococcus pyogenes, ATCC700294, read-out: Minimal Inhibitory Concentrations S. pyogenes ATCC 700294
Procedure, shortened: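 Plates with two-fold compound dilution series in broth were incubated overnight, aerobically, at 37° C, following CLSI microdilution guidance.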

[4] = tested on: Vero (kidney epithelial cells; ATCC CCL-81); test: Cytotoxicity assay (CellTiter-Glo cell viability, 72 hours); details: Vero cells, 72 hours, growth inhibition; read-out: Cytotoxicity IC50
Procedure, shortened: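 Viability measured by CellTiter-Glo luminescence after 72-hour compound exposure (serial dilutions, DMSO control) of Vero monolayers seeded at 5000 cells/well in 10% FBS DMEM. IC50 values are the range of two biologically independent experiments, each run in duplicate.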

[5] = tested on: Bacillus subtilis, ATCC 23857; test: Minimal inhibitory concentration assay (microbroth dilution); details: Bacillus subtilis, ATCC23857, read-out: Minimal Inhibitory Concentrations B. subtilis ATCC 23857
Procedure, shortened: as §1

[6] = tested on: Staphylococcus aureus, NRS70; test: as above; details: Staphylococcus aureus, NRS70, read-out: Minimal Inhibitory Concentrations S. aureus NRS70
Procedure, shortened: as §1

[7] = tested on: Enterococcus faecalis, ATCC 33186; test: as above; details: Enterococcus faecalis, ATCC33186, read-out: Minimal Inhibitory Concentrations E. faecalis ATCC 33186
Procedure, shortened: as §1

[8] = tested on: Staphylococcus aureus, ATCC 29213; test: as above; details: ATCC29213, read-out: Minimal Inhibitory Concentrations S. aureus ATCC 29213
Procedure, shortened: as §1

[9] = tested on: Streptococcus pneumoniae, R6; test: Minimal inhibitory concentration assay; details: read-out: Minimal Inhibitory Concentrations S. pneumoniae R6
Procedure, shortened: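 Microbroth dilution with two-fold serial compound dilutions in broth, incubated aerobically overnight at 37° C. MIC taken as the lowest concentration preventing bacterial growth.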

For C[C@@H]1NC(=O)[C@@H]2CCCCN2C(=O)[C@@H]2CCCN2C(=O)[C@@H](NC(=O)[C@H](Cc2cc(F)cc(F)c2)NC(=O)Nc2ccc(C(F)(F)F)cc2)[C@H](C)OC(=O)[C@@H]2CCCN2C1=O [Compound 16, (S)-3-(3,5-difluorophenyl)-N-((6S,8aS,14aS,20S,21S,23aS)-6,21-dimethyl-5,8,14,19,23-pentaoxooctadecahydro-1H,5H,14H,19H-pyrido[2,1-i]dipyrrolo[2,1-c:2′,1′-l][1]oxa[4,7,10,13]tetraazacyclohexadecin-20-yl)-2-(3-(4-(trifluoromethyl)phenyl)ureido)propanamide] ({NHPh(4-CF3)-CO}-[Phe(3,5-F2)][aThr]P[Pip]AP; ester 2-C), the MIC [1] was 0.8 µM (≈ 0.678 µg/mL), the “Minimal Inhibitory Concentrations S. aureus USA 300 ΔClpP” value [2] was 3.1 µM and the MIC [3] was 1.5 µM (≈ 1.27 µg/mL). It also gave an IC50 [4] of 74.3 ± 9 µM, an MIC [5] of 0.4 µM (≈ 0.339 µg/mL) and an MIC [6] of 0.8 µM (≈ 0.678 µg/mL). For the same compound, the MIC [7] was less than 0.1 µM, the MIC [8] was 0.4 µM (≈ 0.339 µg/mL) and the MIC [9] was 0.8 µM (≈ 0.678 µg/mL).

For Cc1ccc(NC(=O)N[C@@H](Cc2cc(F)cc(F)c2)C(=O)N[C@@H]2C(=O)N3CCC[C@H]3C(=O)N3CCCC[C@H]3C(=O)N[C@@H](C)C(=O)N3C[C@@H](C)C[C@H]3C(=O)O[C@H]2C)cc1 [Compound 18, (S)-3-(3,5-difluorophenyl)-2-(3-(p-tolyl)ureido)-N-((2R,6S,8aS,14aS,20S,21S,23aS)-2,6,21-trimethyl-5,8,14,19,23-pentaoxooctadecahydro-1H,5H,14H,19H-pyrido[2,1-i]dipyrrolo[2,1-c:2′,1′-l][1]oxa[4,7,10,13]tetraazacyclohexadecin-20-yl)propanamide] ({NH(4-Me-phenyl)-CO}-[Phe(3,5-F2)][aThr]P[Pip]A[Pro(4S-Me)]; ester 2-C), the MIC [1] was 0.1 µM (≈ 0.0808 µg/mL), the “Minimal Inhibitory Concentrations S. aureus USA 300 ΔClpP” value [2] was 100 µM and the MIC [3] was less than 0.1 µM. It also gave an IC50 [4] of 26.7 ± 3.6 µM, an MIC [5] of less than 0.1 µM and an MIC [6] of 0.1 µM (≈ 0.0808 µg/mL). It also gave an MIC [7] of 0.8 µM (≈ 0.646 µg/mL), an MIC [8] of 0.1 µM (≈ 0.0808 µg/mL) and an MIC [9] of less than 0.1 µM.

Cc1ccc(NC(=O)N[C@@H](Cc2cc(F)cc(F)c2)C(=O)N[C@@H]2C(=O)N3CCC[C@H]3C(=O)N3CCCC[C@H]3C(=O)N[C@@H](C)C(=O)N3CCC[C@H]3C(=O)O[C@H]2C)cc1 [Compound 15, (S)-3-(3,5-difluorophenyl)-N-((6S,8aS,14aS,20S,21S,23aS)-6,21-dimethyl-5,8,14,19,23-pentaoxooctadecahydro-1H,5H,14H,19H-pyrido[2,1-i]dipyrrolo[2,1-c:2′,1′-l][1]oxa[4,7,10,13]tetraazacyclohexadecin-20-yl)-2-(3-(p-tolyl)ureido)propanamide] ({NH(4-Me-phenyl)-CO}-[Phe(3,5-F2)][aThr]P[Pip]AP; ester 2-C) was tested, and the MIC [1] was less than 0.1 µM, the “Minimal Inhibitory Concentrations S. aureus USA 300 ΔClpP” value [2] was 100 µM and the MIC [3] was 0.6 µM (≈ 0.476 µg/mL). It also gave an IC50 [4] of 39.7 ± 6.6 µM, an MIC [5] of less than 0.1 µM and an MIC [6] of 0.3 µM (≈ 0.238 µg/mL). The MIC [7] was 0.3 µM (≈ 0.238 µg/mL), the MIC [8] was 0.6 µM (≈ 0.476 µg/mL) and the MIC [9] was 0.3 µM (≈ 0.238 µg/mL).

With C[C@H]1C[C@H]2C(=O)O[C@@H](C)[C@H](NC(=O)[C@H](Cc3cc(F)cc(F)c3)NC(=O)Nc3ccc(C(F)(F)F)cc3)C(=O)N3CCC[C@H]3C(=O)N3CCCC[C@H]3C(=O)N[C@@H](C)C(=O)N2C1 [Compound 19, (S)-3-(3,5-difluorophenyl)-2-(3-(4-(trifluoromethyl)phenyl)ureido)-N-((2R,6S,8aS,14aS,20S,21S,23aS)-2,6,21-trimethyl-5,8,14,19,23-pentaoxooctadecahydro-1H,5H,14H,19H-pyrido[2,1-i]dipyrrolo[2,1-c:2′,1′-l][1]oxa[4,7,10,13]tetraazacyclohexadecin-20-yl)propanamide] ({NHPh(4-CF3)-CO}-[Phe(3,5-F2)][aThr]P[Pip]A[Pro(4S-Me)]; ester 2-C) the MIC [1] was 0.1 µM (≈ 0.0862 µg/mL), the “Minimal Inhibitory Concentrations S. aureus USA 300 ΔClpP” value [2] was 6.2 µM and the MIC [3] was 0.4 µM (≈ 0.345 µg/mL). It also gave an IC50 [4] of 36.8 ± 4.1 µM, an MIC [5] of less than 0.1 µM and an MIC [6] of 0.1 µM (≈ 0.0862 µg/mL). For the same compound, the MIC [7] was 0.39 µM (≈ 0.336 µg/mL), the MIC [8] was 0.1 µM (≈ 0.0862 µg/mL) and the MIC [9] was 0.8 µM (≈ 0.689 µg/mL).
